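Interpolation was linear, between the two tested concentrations surrounding the appropriate level; five concentrations were tested over 48 hours in 96-well plates. GI50 is the concentration that inhibits growth by half. At the TGI there is no net growth.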
Columns and labels:
Assay in all cases: growth of human tumour cells (NCI), 48 h
[1] = test system: HCT-116 colon
[2] = test system: PC-3 prostate
[3] = test system: A498 renal
[4] = test system: BT-549 breast
[5] = test system: SW-620 colon
[6] = test system: SNB-19 CNS
[7] = test system: MDA-MB-231 breast
[8] = test system: KM12 colon
[9] = test system: U251 CNS
[10] = test system: TK-10 renal
[11] = test system: UACC-62 melanoma
[12] = test system: LOX IMVI melanoma
[13] = test system: OVCAR-8 ovarian
[14] = test system: MOLT-4 leukemia
[15] = test system: EKVX NSCLC
[16] = test system: UACC-257 melanoma
[17] = test system: SNB-75 CNS
[18] = test system: SK-MEL-2 melanoma
[19] = test system: T-47D breast
[20] = test system: SF-268 CNS
[21] = test system: SF-539 CNS
[22] = test system: SK-MEL-28 melanoma
[23] = test system: HS 578T breast
[24] = test system: K-562 leukemia
[25] = test system: RPMI-8226 leukemia
[26] = test system: UO-31 renal
[27] = test system: CCRF-CEM leukemia
[28] = test system: SK-MEL-5 melanoma
[29] = test system: NCI-H23 lung
[30] = test system: DU-145 prostate
[31] = test system: ACHN renal
[32] = test system: NCI-H226 lung
[33] = test system: CAKI-1 renal
[34] = test system: 786-0 renal
[35] = test system: SK-OV-3 ovarian
[36] = test system: M14 melanoma
[37] = test system: HOP-92 NSCLC
[38] = test system: SF-295 CNS
[39] = test system: RXF 393 renal
[40] = test system: MALME-3M melanoma
[41] = test system: NCI-H460 lung
[42] = test system: HOP-62 NSCLC
[43] = test system: COLO 205 colon
[44] = test system: NCI-H522 lung
[45] = test system: SN12C renal
[46] = test system: IGROV1 ovarian
[47] = test system: MCF7 breast
[48] = test system: NCI/ADR-RES ovarian
[49] = test system: A549 NSCLC
[50] = test system: MDA-MB-435
[51] = test system: HT29 colon
[52] = test system: OVCAR-5 ovarian
[53] = test system: OVCAR-4 ovarian
[54] = test system: OVCAR-3 ovarian
[55] = test system: HCT-15 colon

Work on Cc1ccc(C2SCc3nc4ccc(C(=O)c5ccccc5)cc4n32)cc1 (stereo not given) yielded a GI50 [1] of 3.99 µM, a TGI [1] of 41.3 µM and a GI50 [2] of 10.5 µM. The TGI [2] was over 67.5 µM, the GI50 [3] was 13.5 µM and the TGI [3] was 36.3 µM. It also gave a GI50 [4] of 4.8 µM, a TGI [4] of 18.4 µM and a GI50 [5] of 3.69 µM. For the same molecule, the TGI [5] was over 39.1 µM, the GI50 [6] was 12.4 µM and the TGI [6] was over 71.9 µM. The GI50 [7] was 3.66 µM, the TGI [7] was 19.4 µM and the GI50 [8] was 6.49 µM. For the same molecule, the TGI [8] was 35.2 µM, the GI50 [9] was 5.09 µM and the TGI [9] was over 83.7 µM. For the same molecule, the GI50 [10] was 13.9 µM, the TGI [10] was 35.1 µM and the GI50 [11] was 5.29 µM. It also gave a TGI [11] of 19.3 µM, a GI50 [12] of over 36.7 µM and a TGI [12] of over 100 µM. It also gave a GI50 [13] of 15.4 µM, a TGI [13] of 62.6 µM and a GI50 [14] of 14.8 µM. For the same molecule, the TGI [14] was over 100 µM, the GI50 [15] was 21.8 µM and the TGI [15] was over 100 µM. The GI50 [16] was 22 µM, the TGI [16] was over 61.9 µM and the GI50 [17] was 23.3 µM. For the same molecule, the TGI [17] was over 70 µM, the GI50 [18] was 12.1 µM and the TGI [18] was 47.3 µM. The GI50 [19] was 14 µM, the TGI [19] was over 63.5 µM and the GI50 [20] was 22.4 µM. The TGI [20] was 77.7 µM, the GI50 [21] was 13.4 µM and the TGI [21] was 32.5 µM. It also gave a GI50 [22] of 17.7 µM, a TGI [22] of over 100 µM and a GI50 [23] of 22.2 µM. For the same molecule, the TGI [23] was 68.9 µM, the GI50 [24] was 3.74 µM and the TGI [24] was over 100 µM. For the same molecule, the GI50 [25] was 10.3 µM, the TGI [25] was over 95 µM and the GI50 [26] was 17 µM. It also gave a TGI [26] of 54.9 µM, a GI50 [27] of 23.8 µM and a TGI [27] of over 100 µM. It also gave a GI50 [28] of 1.33 µM, a TGI [28] of 7.48 µM and a GI50 [29] of 14.4 µM. The TGI [29] was over 62 µM, the GI50 [30] was 27.9 µM and the TGI [30] was 89.6 µM. For the same molecule, the GI50 [31] was 14.1 µM, the TGI [31] was over 56.9 µM and the GI50 [32] was 15.3 µM. For the same molecule, the TGI [32] was 62.3 µM, the GI50 [33] was 0.457 µM and the TGI [33] was 4.26 µM. The GI50 [34] was 13.3 µM, the TGI [34] was 42.2 µM and the GI50 [35] was 20.5 µM. For the same molecule, the TGI [35] was 47.8 µM, the GI50 [36] was 11.6 µM and the TGI [36] was over 69.1 µM. For the same molecule, the GI50 [37] was 11.7 µM, the TGI [37] was 38.8 µM and the GI50 [38] was 8.21 µM. The TGI [38] was 33 µM, the GI50 [39] was 21.4 µM and the TGI [39] was 70.3 µM. For the same molecule, the GI50 [40] was 6.27 µM, the TGI [40] was 26.8 µM and the GI50 [41] was 10.7 µM. The TGI [41] was over 75.6 µM, the GI50 [42] was 14.8 µM and the TGI [42] was 39.6 µM. For the same molecule, the GI50 [43] was 6.18 µM, the TGI [43] was over 100 µM and the GI50 [44] was 7.93 µM. It also gave a TGI [44] of 38.2 µM, a GI50 [45] of 11.4 µM and a TGI [45] of 38.3 µM. For the same molecule, the GI50 [46] was 13.6 µM, the TGI [46] was over 69 µM and the GI50 [47] was 11.9 µM. The TGI [47] was over 76.7 µM, the GI50 [48] was 2.37 µM and the TGI [48] was 8.38 µM. The GI50 [49] was 5.99 µM, the TGI [49] was over 63.3 µM and the GI50 [50] was 2.83 µM. It also gave a TGI [50] of 11.4 µM, a GI50 [51] of 5.73 µM and a TGI [51] of over 100 µM. It also gave a GI50 [52] of 21.5 µM, a TGI [52] of 55.2 µM and a GI50 [53] of 34 µM. The TGI [53] was over 100 µM, the GI50 [54] was 6.72 µM and the TGI [54] was 21.9 µM. For the same molecule, the GI50 [55] was 3.85 µM and the TGI [55] was over 42.9 µM.

From PubChem BioAssay (NCI)
